Source: patent US11078170B2 (Assembly Biosciences, Inc., priority 2017, dated 2021)

test system: HBV viral production from HepAD38 cells; test: Activity of test compounds on viral production from HepAD38 cells (viral load by qPCR of HBV core sequence in supernatant); assay type: cell-based; conditions: Hepatitis B virus, 120 h, 5 days incubation, HBV DNA in supernatant by qPCR, top concentration 10 μM, read-out: Viral Load EC50 Activity range
In short: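 HepAD38 cells, 50,000/well in tetracycline-free 2% FBS medium, treated 5 days at 37° C. with compound from 10 μM top concentration. HBV DNA in supernatant quantified by TaqMan qPCR of core sequence against DNA standards, relative to DMSO wells; CellTiter-Glo viability read in parallel. EC50/CC50 from four-parameter logistic fit.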

Row | Structure (SMILES) | EC50 [nM]
1 | CN1C(C(=O)Nc2ccc(F)c(Cl)c2)CC(c2ccc(-c3ccc(C(F)(F)F)nc3)s2)NS1(=O)=O (racemic) [HBV-CSU-158, Cis-N-(3-chloro-4-fluorophenyl)-2-methyl-5-(5-(6-(trifluoromethyl)pyridin-3-yl)thiophen-2-yl)-1,2,6-thiadiazinane-3-carboxamide 1,1-dioxide] | 1000 to 5000
2 | CN1C(C(=O)Nc2ccc(F)c(Cl)c2)CC(c2ccc(-c3cnn(C)c3)s2)NS1(=O)=O (racemic) [HBV-CSU-161, Cis-N-(3-chloro-4-fluorophenyl)-2-methyl-5-(5-(1-methyl-1H-pyrazol-4-yl)thiophen-2-yl)-1,2,6-thiadiazinane-3-carboxamide 1,1-dioxide] | < 1000
3 | [2H]C1[C@]([2H])(c2ccc(-c3cnn(C([2H])([2H])[2H])c3)s2)NS(=O)(=O)N(C([2H])([2H])[2H])[C@]1([2H])C(=O)Nc1ccc(F)c(Cl)c1 (stereo in doubt) [HBV-CSU-379-ISO-I, Cis-N-(3-Chloro-4-fluorophenyl)-2-(methyl-d3)-5-(5-(1-(methyl-d3)-1H-pyrazol-4-yl)thiophen-2-yl)-1,2,6-thiadiazinane-3,4,5-d3-3-carboxamide 1,1-dioxide] | < 1000
4 | COc1ccc(C2CC(C(=O)Nc3ccc(F)c(Cl)c3)N(C)S(=O)(=O)N2)cc1 (stereo not drawn) [HBV-CSU-200, Cis-N-(3-Chloro-4-fluorophenyl)-5-(4-methoxyphenyl)-2-methyl-1,2,6-thiadiazinane-3-carboxamide 1,1-dioxide] | < 1000
5 | CN1C(C(=O)Nc2ccc(F)c(Cl)c2)CC(c2ncc(-c3cccs3)s2)NS1(=O)=O (racemic) [HBV-CSU-178, Cis-N-(3-Chloro-4-fluorophenyl)-2-methyl-5-(5-(thiophen-2-yl)thiazol-2-yl)-1,2,6-thiadiazinane-3-carboxamide 1,1-dioxide] | < 1000
6 | COCCN1C(C(=O)Nc2ccc(F)c(Cl)c2)CC(c2cccs2)NS1(=O)=O (racemic) [HBV-CSU-025, Cis-N-(3-chloro-4-fluorophenyl)-2-(2-methoxyethyl)-5-(thiophen-2-yl)-1,2,6-thiadiazinane-3-carboxamide 1,1-dioxide] | < 1000
7 | CN1[C@H](C(=O)Nc2cc(F)c(F)c(Br)c2)C[C@H](c2cccs2)NS1(=O)=O [HBV-CSU-049-ISO-I, Cis-N-(3-Bromo-4,5-difluorophenyl)-2-methyl-5-(thiophen-2-yl)-1,2,6-thiadiazinane-3-carboxamide 1,1-dioxide] | < 1000
8 | CN1[C@@H](C(=O)Nc2ccc(F)c(Cl)c2)C[C@@H](c2cc(-c3ncn(C)n3)cs2)NS1(=O)=O [HBV-CSU-326-ISO-II, Cis-N-(3-chloro-4-fluorophenyl)-2-methyl-5-(4-(1-methyl-1H-1,2,4-triazol-3-yl)thiophen-2-yl)-1,2,6-thiadiazinane-3-carboxamide 1,1-dioxide] | > 5000
9 | CN1C(C(=O)Nc2ccc(F)c(Cl)c2)CC(c2cc(-c3cnn(CCO)c3)cs2)NS1(=O)=O (racemic) [HBV-CSU-296, Cis-N-(3-chloro-4-fluorophenyl)-5-(4-(1-(2-hydroxyethyl)-1H-pyrazol-4-yl)thiophen-2-yl)-2-methyl-1,2,6-thiadiazinane-3-carboxamide 1,1-dioxide] | 1000 to 5000
10 | CN1[C@@H](C(=O)Nc2ccc(F)c(Cl)c2)C[C@@H](c2ccon2)NS1(=O)=O [HBV-CSU-055-ISO-II, Cis-N-(3-chloro-4-fluorophenyl)-5-(isoxazol-3-yl)-2-methyl-1,2,6-thiadiazinane-3-carboxamide 1,1-dioxide] | > 5000
11 | [2H]C([2H])([2H])N1[C@@H](C(=O)Nc2ccc(F)c(Cl)c2)C[C@@H](c2ncc(-c3cn(C([2H])([2H])[2H])cn3)s2)NS1(=O)=O (relative stereo) [HBV-CSU-337-ISO-II, Cis-N-(3-Chloro-4-fluorophenyl)-2-(methyl-d3)-5-(5-(1-(methyl-d3)-1H-imidazol-4-yl)thiazol-2-yl)-1,2,6-thiadiazinane-3-carboxamide 1,1-dioxide] | 1000 to 5000
12 | O=C(O)CN1C(C(=O)Nc2ccc(F)c(Cl)c2)CC(c2nccs2)NS1(=O)=O (stereo not drawn) [HBV-CSU-110, Cis-2-(3-((3-Chloro-4-fluorophenyl)carbamoyl)-1,1-dioxido-5-(thiazol-2-yl)-1,2,6-thiadiazinan-2-yl)acetic acid] | > 5000
13 | CN1[C@H](C(=O)Nc2ccc(F)c(Cl)c2)C[C@@H](c2ccc(-c3cnn(C)c3)s2)NS1(=O)=O (racemic) [HBV-CSU-161-Trans (Rac), Trans-N-(3-chloro-4-fluorophenyl)-2-methyl-5-(5-(1-methyl-1H-pyrazol-4-yl)thiophen-2-yl)-1,2,6-thiadiazinane-3-carboxamide 1,1-dioxide] | 1000 to 5000
14 | CN1[C@@H](C(=O)Nc2ccc(F)c(Cl)c2)C[C@@H](c2ncc(-c3ccc(F)cc3)s2)NS1(=O)=O [HBV-CSU-248-ISO-II, Cis-N-(3-Chloro-4-fluorophenyl)-5-(5-(4-fluorophenyl)thiazol-2-yl)-2-methyl-1,2,6-thiadiazinane-3-carboxamide 1,1-dioxide] | > 5000
15 | CN1C(C(=O)Nc2ccc(F)c(Cl)c2)CC(c2ccc(-c3cnn(C(F)(F)F)c3)s2)NS1(=O)=O (stereo not drawn) [HBV-CSU-321] | < 1000
16 | CN1[C@H](C(=O)Nc2ccc(F)c(Cl)c2)C[C@H](c2ncc(-c3c[nH]cn3)s2)NS1(=O)=O [HBV-CSU-333-ISO-I, 5-(5-(1H-imidazol-4-yl)thiazol-2-yl)-N-(3-chloro-4-fluorophenyl)-2-methyl-1,2,6-thiadiazinane-3-carboxamide 1,1-dioxide] | < 1000
17 | CN1[C@@H](C(=O)Nc2ccc(F)c(Cl)c2)C[C@@H](c2ncc(-c3cccs3)s2)NS1(=O)=O [HBV-CSU-178-ISO-II, Cis-N-(3-Chloro-4-fluorophenyl)-2-methyl-5-(5-(thiophen-2-yl)thiazol-2-yl)-1,2,6-thiadiazinane-3-carboxamide 1,1-dioxide] | 1000 to 5000
18 | CN1[C@H](C(=O)Nc2ccc(F)c(Cl)c2)C[C@H](c2ncc(-c3cn(C)cn3)s2)NS1(=O)=O [HBV-CSU-276-ISO-I, (3S,5R)-N-(3-chloro-4-fluorophenyl)-2-methyl-5-(5-(1-methyl-1H-imidazol-4-yl)thiazol-2-yl)-1,2,6-thiadiazinane-3-carboxamide 1,1-dioxide] | < 1000
19 | [2H]C([2H])([2H])N1[C@@H](C(=O)Nc2ccc(F)c(Cl)c2)C[C@@H](c2ccc(Br)s2)NS1(=O)=O (relative stereo) [HBV-CSU-370-ISO-II, Cis-5-(5-bromothiophen-2-yl)-N-(3-chloro-4-fluorophenyl)-2-(methyl-d3)-1,2,6-thiadiazinane-3-carboxamide 1,1-dioxide] | 1000 to 5000
20 | CN1[C@H](C(=O)Nc2ccc(F)c(Cl)c2)C[C@H](c2ccc(F)cn2)NS1(=O)=O [HBV-CSU-032-ISO-I, Cis-N-(3-Chloro-4-fluorophenyl)-5-(5-fluoropyridin-2-yl)-2-methyl-1,2,6-thiadiazinane-3-carboxamide 1,1-dioxide] | < 1000
21 | CN1[C@H](C(=O)Nc2ccc(F)c(Cl)c2)C[C@H](c2ccc(-c3ccc(F)cn3)s2)NS1(=O)=O [HBV-CSU-242-ISO-I, Cis-N-(3-chloro-4-fluorophenyl)-5-(5-(5-fluoropyridin-2-yl)thiophen-2-yl)-2-methyl-1,2,6-thiadiazinane-3-carboxamide 1,1-dioxide] | < 1000
